This note sets out measurements from patent publication US20240309043A1, “THERAPEUTICALLY ACTIVE STEROIDAL DERIVATIVES” (Organon R&D Finland Ltd., priority 2017, published 2024).

Data set [1] concerns the target T1, recombinant human 17β-HSD1 (Homo sapiens, UniProt P14061).
T1 construct: made in house; host or cells: Sd9 (Sf9) insect cells, baculovirus (Bac to Bac Expression System)
T1 sequence (P14061 1-328): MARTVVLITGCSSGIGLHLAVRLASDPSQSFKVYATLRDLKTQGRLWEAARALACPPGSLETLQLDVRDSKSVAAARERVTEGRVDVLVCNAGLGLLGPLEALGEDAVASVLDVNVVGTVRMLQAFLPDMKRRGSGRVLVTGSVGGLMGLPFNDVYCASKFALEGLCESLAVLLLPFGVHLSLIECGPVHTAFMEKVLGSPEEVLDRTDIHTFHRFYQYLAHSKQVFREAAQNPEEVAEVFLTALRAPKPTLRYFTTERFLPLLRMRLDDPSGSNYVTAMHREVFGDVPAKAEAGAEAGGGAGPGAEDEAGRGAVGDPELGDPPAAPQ
The data set is described as follows: Inhibition of recombinant human 17β-HSD1. The data set is classed as biochemical. As to conditions: inhibitor 100 nM; 30 nM estrone, 1 mM NADPH, 30 min RT. The method, boiled down: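 Microsomes from Sf9 cells expressing human 17β-HSD1 (1 μg/ml) were incubated for 30 min at RT in 20 mM KH2PO4 pH 7.4 with 30 nM ³H-estrone, 1 mM NADPH and inhibitor at 1 μM or 0.1 μM (1% DMSO). Estrone-to-estradiol conversion was measured by radio-HPLC after TCA stop, and % inhibition was taken as 100 − % conversion.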

The target in data set [2] is T2, recombinant human 17β-HSD2 (Homo sapiens, UniProt P37059).
T2 construct: made in house; host or cells: Sd9 (Sf9) insect cells, baculovirus (Bac to Bac Expression System)
T2 sequence (P37059 1-387): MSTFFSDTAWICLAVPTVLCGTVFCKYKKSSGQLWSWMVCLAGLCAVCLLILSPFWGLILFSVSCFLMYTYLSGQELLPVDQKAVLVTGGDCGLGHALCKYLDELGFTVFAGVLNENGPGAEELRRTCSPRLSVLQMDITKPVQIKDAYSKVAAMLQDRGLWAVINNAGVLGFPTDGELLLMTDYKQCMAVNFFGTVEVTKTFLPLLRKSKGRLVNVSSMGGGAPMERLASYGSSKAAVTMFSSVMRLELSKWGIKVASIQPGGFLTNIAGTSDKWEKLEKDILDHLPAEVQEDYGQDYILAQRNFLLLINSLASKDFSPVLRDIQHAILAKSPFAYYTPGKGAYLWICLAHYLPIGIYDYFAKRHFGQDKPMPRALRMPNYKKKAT
Description: Inhibition of recombinant human 17β-HSD2. As to conditions: inhibitor 1 μM; 50 nM estradiol, 1 mM NADH, 30 min RT. The data set is classed as biochemical. The method, boiled down: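 Sf9 baculovirus-expressed enzyme membrane extract (4 μg/ml) incubated 30 min at RT in 20 mM KH2PO4 pH 8.5 with 50 nM estradiol (³H-tracer) and 1 mM NADH, inhibitor at 1 μM or 0.1 μM, 1% DMSO. TCA-stopped; estradiol-to-estrone conversion by radio-HPLC, % inhibition = 100 − % conversion.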

For data set [3], the system named is HSD1 enzyme that is expressed in rabbit placenta tissue. The data set is described as follows: Inhibition of E1 to E2 conversion in rabbit placenta tissue homogenate. Format: biochemical. As to conditions: inhibitor 100 nM, 30 nM estrone, 30 min.
The test system of data set [4] is human hepatocytes. Description: Metabolic stability assay, human hepatocyte incubations. Format: in vitro ADME. As to conditions: 37° C., 0-60 min, half life. On the procedure:
The in vitro metabolic stability of the compounds of the invention was determined for exemplified compounds using human hepatocyte incubations. Study compounds were incubated 0, 10, 20, 40 and 60 min at 37° C. Samples were collected at all time points and compounds were detected by LC-MS/MS analysis. The percent compound remaining is calculated by comparing the peak area of the parent compound at each time point to time zero. In vitro metabolic stability was determined as half life (T½), which was determined by regression analysis of the percent parent disappearance vs. time curve. The results are summarized in Table2.

`Cc1cc(NC(=O)CC[C@@H]2C/C(=N\O)[C@@]3(C)CCC4c5cccc(F)c5CCC4C23)no1` (stereo partly drawn) [Compound 2, 3-((13S,15R,E)-4-fluoro-17-(hydroxyimino)-13-methyl-7,8,9,11,12,13,14,15,16,17-decahydro-6H-cyclopenta[a]phenanthren-15-yl)-N-(5-methylioxazol-3-yl)propanamide]: the inhibition at 0.1 µM in data set [1] came out at 83%. Besides, in data set [2], the inhibition at 1 µM is 9%. Further, in data set [3], the “Rabbit placenta inhibition % @100 nM” value stood at 75%. The “Human hepatocytes MetStab T1_2 min” value in data set [4] came out at 38 min.
As for `COc1ccc(NC(=O)CC[C@@H]2C/C(=N\O)[C@@]3(C)CCC4c5cccc(F)c5CCC4C23)nc1` (stereo partly drawn) [Compound 6, 3-((13S,15R,E)-4-fluoro-17-(hydroxyimino)-13-methyl-7,8,9,11,12,13,14,15,16,17-decahydro-6H-cyclopenta[a]phenanthren-15-yl)-N-(5-methoxypyridin-2-yl)propanamide], the inhibition at 0.1 µM in data set [1] turned out to be 92%. Moreover, in data set [2], the inhibition at 1 µM was 1%. For the same molecule, the “Rabbit placenta inhibition % @100 nM” value in data set [3] is given as 79%. Also, the “Human hepatocytes MetStab T1_2 min” value in data set [4] is reported as 67 min.
For `C[C@]12CCC3c4cccc(F)c4CCC3C1[C@H](CCC(=O)Nc1ccc(F)cn1)C/C2=N\O` (stereo partly drawn) [Compound 8, 3-((13S,15R,E)-4-fluoro-17-(hydroxyimino)-13-methyl-7,8,9,11,12,13,14,15,16,17-decahydro-6H-cyclopenta[a]phenanthren-15-yl)-N-(5-fluoropyridin-2-yl)propanamide], in that order: 90%, 2%, 37% and 52 min.
Turning to `C[C@]12CCC3c4cccc(F)c4CCC3C1[C@H](CCC(=O)Nc1cccnn1)C/C2=N\O` (stereo partly drawn) [Compound 20], the inhibition at 0.1 µM in data set [1] amounted to 80%. In addition, the inhibition at 1 µM in data set [2] came out at 0%. Besides, the “Rabbit placenta inhibition % @100 nM” value in data set [3] worked out at 50%. For the same molecule, the “Human hepatocytes MetStab T1_2 min” value in data set [4] is recorded as 17 min.
Regarding `CC(C)c1ccc(NC(=O)CC[C@@H]2C/C(=N\O)[C@@]3(C)CCC4c5ccc(F)cc5CCC4C23)nc1` (stereo partly drawn) [Compound 42, 3-((13S,15R,E)-3-fluoro-17-(hydroxyimino)-13-methyl-7,8,9,11,12,13,14,15,16,17-decahydro-6H-cyclopenta[a]phenanthren-15-yl)-N-(5-isopropylpyridin-2-yl)propanamide], the inhibition at 0.1 µM in data set [1] amounted to 96%. Besides, the inhibition at 1 µM in data set [2] is -5%. Besides, the “Rabbit placenta inhibition % @100 nM” value in data set [3] is recorded as 41%. In data set [4], the “Human hepatocytes MetStab T1_2 min” value was found to be 78 min.
For `COc1ccnc(NC(=O)CC[C@@H]2C/C(=N\O)[C@@]3(C)CCC4c5ccc(Cl)cc5CCC4C23)c1` (stereo partly drawn) [Compound 56, 3-((13S,15R,E)-3-chloro-17-(hydroxyimino)-13-methyl-7,8,9,11,12,13,14,15,16,17-decahydro-6H-cyclopenta[a]phenanthren-15-yl)-N-(4-methoxypyridin-2-yl)propanamide], in that order: 63%, 3%, 0% and 334 min.
On the same counts, the results for `COc1ccc(NC(=O)CC[C@@H]2C/C(=N\O)[C@@]3(C)CCC4c5ccccc5CCC4C23)nc1` (stereo partly drawn) [Compound 84] are 73%, -15%, 35% and 35 min.
On the same counts, the results for `C[C@]12CCC3c4ccccc4CCC3C1[C@H](CCC(=O)Nc1ccc(N3CCOCC3)cn1)C/C2=N\O` (stereo partly drawn) [Compound 90, 3-((13S,15R,E)-17-(hydroxyimino)-13-methyl-7,8,9,11,12,13,14,15,16,17-decahydro-6H-cyclopenta[a]phenanthren-15-yl)-N-(5-morpholinopyridin-2-yl)propanamide] are 82%, -6%, 47% and 83 min.
Turning to `CC(C)c1ccc(NC(=O)CC[C@@H]2C/C(=N\O)[C@@]3(C)CCC4c5ccccc5CCC4C23)nc1` (stereo partly drawn) [Compound 96, 3-((13S,15R,E)-17-(hydroxyimino)-13-methyl-7,8,9,11,12,13,14,15,16,17-decahydro-6H-cyclopenta[a]phenanthren-15-yl)-N-(5-isopropylpyridin-2-yl)propanamide], the inhibition at 0.1 µM in data set [1] was 84%. In data set [2], the inhibition at 1 µM was -4%. Besides, the “Rabbit placenta inhibition % @100 nM” value in data set [3] came to 51%. The “Human hepatocytes MetStab T1_2 min” value in data set [4] is 46 min.
As for `C[C@]12CCC3c4ccccc4CCC3C1[C@H](CCC(=O)Nc1ccc(F)cn1)C/C2=N\O` (stereo partly drawn) [Compound 98, N-(5-fluoropyridin-2-yl)-3-((13S,15R,E)-17-(hydroxyimino)-13-methyl-7,8,9,11,12,13,14,15,16,17-decahydro-6H-cyclopenta[a]phenanthren-15-yl)propanamide], the inhibition at 0.1 µM in data set [1] was 60%. Besides, in data set [2], the inhibition at 1 µM amounted to 0%. The “Rabbit placenta inhibition % @100 nM” value in data set [3] came to 4%. The “Human hepatocytes MetStab T1_2 min” value in data set [4] was determined as 28 min.
For `COc1ccnc(NC(=O)CC[C@@H]2C/C(=N\O)[C@@]3(C)CCC4c5ccccc5CCC4C23)c1` (stereo partly drawn) [Compound 106, 3-((13S,15R,E)-17-(hydroxyimino)-13-methyl-7,8,9,11,12,13,14,15,16,17-decahydro-6H-cyclopenta[a]phenanthren-15-yl)-N-(4-methoxypyridin-2-yl)propanamide], in that order: 76%, 2%, 5% and 31 min.
For `Cc1cnc(NC(=O)CC[C@@H]2C/C(=N\O)[C@@]3(C)CCC4c5ccccc5CCC4C23)o1` (stereo partly drawn) [Compound 108, 3-((13S,15R,E)-17-(hydroxyimino)-13-methyl-7,8,9,11,12,13,14,15,16,17-decahydro-6H-cyclopenta[a]phenanthren-15-yl)-N-(5-methyloxazol-2-yl)propanamide], in that order: 54%, 5%, 20% and 21 min.
On the same counts, the results for `Cc1cc(NC(=O)CC[C@@H]2C/C(=N\O)[C@@]3(C)CCC4c5ccccc5CCC4C23)no1` (stereo partly drawn) [Compound 110] are 33%, -4%, 35% and 26 min.
Consider `CC(C)c1ccc(NC(=O)CC[C@@H]2C/C(=N\O)[C@@]3(C)CCC4c5cccc(F)c5CCC4C23)nc1` (stereo partly drawn) [Compound 112, 3-((13S,15R,E)-4-fluoro-17-(hydroxyimino)-13-methyl-7,8,9,11,12,13,14,15,16,17-decahydro-6H-cyclopenta[a]phenanthren-15-yl)-N-(5-isopropylpyridin-2-yl)propanamide], for which the inhibition at 0.1 µM in data set [1] turned out to be 96%. The inhibition at 1 µM in data set [2] was determined as 7%. Moreover, the “Rabbit placenta inhibition % @100 nM” value in data set [3] was found to be 67%. Further, in data set [4], the “Human hepatocytes MetStab T1_2 min” value is reported as 29 min.
For `C[C@]12CCC3c4cccc(F)c4CCC3C1[C@H](CCC(=O)Nc1ccc(N3CCOCC3)cn1)C/C2=N\O` (stereo partly drawn) [Compound 114, 3-((13S,15R,E)-4-fluoro-17-(hydroxyimino)-13-methyl-7,8,9,11,12,13,14,15,16,17-decahydro-6H-cyclopenta[a]phenanthren-15-yl)-N-(5-morpholinopyridin-2-yl)propanamide], in that order: 100%, 7%, 75% and 40 min.
